According to patent US20240101535A1, “DIHYDROISOQUINOLINONE DERIVATIVE AND APPLICATION THEREOF” (ETERN BIOPHARMA (SHANGHAI) CO., LTD., priority 2020, published 2024):
Where a name gives a salt, the structure may show the parent alone. Read-outs that look alike come from different tables or passages of the source.

Experiments:
MV4-11 cells = experiment: MV4-11 cell proliferation inhibition experiment (CellTiter-Glo); assay type: cell-based; details: 6 days, read-out: cell proliferation inhibitory activity
Experimental: Test Example 2: MV4-11 Cell (ATCC: CRL-9591) Proliferation Inhibition Experiment
ATP in living cells was quantitatively detected by CellTiter-Glo (Promega-G7573) Luminescence Cell Viability Assay Kit to determine the effect of the compounds to be tested on cell proliferation. • Step 1: MV4-11 cells were seeded in 96-well plates (Greiner-655098) at a density of 1,500 cells per well with a volume of 140 μL per well; Cell culture medium components included RPM11640 (Gibco-A10491-01)+10% FBS (Gibco-10099-141C)+1% Penicillin-Streptomycin (5,000 U/mL, Gibco-15070-063). • Step 2: On the day of cell seeding, the cells were treated with the compound to be tested. The compound to be tested was diluted with a 3-fold gradient, and a total of 9 concentration gradients were set. DMSO (Sigma, D2650) with 0.5% final concentration or a DMSO solution containing the compound to be tested was added per well with 2 or 3 replicate wells at each concentration point. The plates were incubated at 37° C. in a 5% CO2 incubator (Thermo Scientific Steri-Cycle 371) for 6 days. • Step 3: The cell viability in the control and treatment groups was detected with CellTiter-Glo Luminescent Cell Viability Assay Kit. 50 μL of CellTiter-Glo was added per well, mixed well, and incubated for 15 min at room temperature protected from light. According to the kit instructions, the chemiluminescence signal was read using a multifunctional microplate reader (EnVision, PerkinElmer).
The inhibition percentage (%) of the compound at each concentration point was calculated by the following formula:
Inhibition Percentage (%)=(1−signal value of the group treated with the compound/signal value of the group treated with DMSO)*100.
The value of cell proliferation semi-inhibitory concentration IC50 was calculated using GraphPad Prism software, and the results are shown in Table 2.

[1] = molecular target: WDR5 protein (22-334aa) with MLL1 polypeptide (3672-3773aa) (Homo sapiens, UniProt P61964); experiment: WDR5-MLL PPI inhibitory activity test (HTRF); assay type: binding; details: His-tagged WDR5 and biotin-tagged MLL1 polypeptide
Description: Test Example 1: WDR5-MLL PPI Inhibitory Activity Test
Effect of the compounds on WDR5 (WD Repeat Domain 5) and MLL1 (mixed-lineage leukemia 1) peptides at molecular level.
The effect of the compound on the interaction of WDR5 protein (22-334aa) with MLL1 polypeptide (3672-3773aa) was detected by HTRF (Homogeneous Time-Resolved Fluorescence) technology. When the N-terminal His-tagged WDR5 recognized by the Anti-6His-Eu cryptate donor interacts with the biotin-tagged MLL1 polypeptide recognized by the streptavidin-APC receptor, the donor and acceptor are pulled close enough to produce fluorescence resonance energy transfer (FRET). […] Therefore, the decrease in FRET signal can reflect the compound's inhibition on the interaction of WDR5 with MLL1 polypeptide.
The compound to be tested was diluted 3-fold with DMSO. […] Then the compound was diluted with reaction buffer (25 mM HEPES pH=7.5, 100 mM NaCl, 0.05% Tween 20) to control the final concentration of DMSO at 0.5%. In a 384-well plate, 1 μL of compound and 3 μL of 42 nM WDR5 protein were added, centrifuged at 1000 rpm for 1 min, incubated at room temperature for 60 min, followed by adding 3 μL of 333 nM MLL1 polypeptide with incubation at room temperature for 10 min, and followed by adding 3 μL of a mixed liquid of Anti-6His-Eu cryptate and streptavidin-APC with centrifugation at 1000 rpm for 1 mi and incubation at room temperature protected from light for 60 min, using a multifunction microplate reader (EnVision®2105) to read the signal. The following controls were set up per plate: control group (1 μL with 5% DMSO reaction buffer, 3 μL of 42 nM WDR5, 3 μL of MLL1 polypeptide, 3 μL of Anti-6His-Eu cryptate and streptavidin-APC). Blank group (1 μL reaction buffer with 5% DMSO, 3 μL reaction buffer, 3 μL MLL1 polypeptide, 3 μL Anti-6His-Eu cryptate and streptavidin-APC). The test data was calculated according to the signal ratio of two beams of fluorescence at different wavelengths: (665 nm signal/620 nm signal)*10000. […] The IC50 value was calculated using XLfit software.

IC50 (MV4-11 cells; Homo sapiens, 144 h) [nM] | IC50 [1] [nM] | IC50 (MV4-11 cells) [nM] | SMILES
< 50 | < 20 | – | CCOc1cc([C@H](C)N2CC3(CCC3)c3c(CN4CCN(S(C)(=O)=O)CC4)cc(Cn4ccnc4NC)cc3C2=O)ncc1F [Compound 78, (S)-2′-(1-(4-ethoxy-5-fluoropyridine-2-yl)ethyl)-7′-((2-(methylamino)-1H-imidazol-1-yl)methyl)-5′-((4-(methylsulfonyl)piperazin-1-yl)methyl)-2′,3′-dihydro-1′H-spiro[cyclobutan-1,4′-isoquinoline]-1′-one]
< 50 | < 20 | – | CCOc1cc([C@H](C)N2CC3(CCC3)c3c(CN4CCN(S(C)(=O)=O)CC4)cc(Cn4ccnc4NC)cc3C2=O)ncc1C#N [Compound 80, (S)-4-ethoxy-6-(1-(7′-((2-(methylamino)-1H-imidazol-1-yl)methyl)-5′-((4-(methylsulfonyl)piperazin-1-yl)methyl)-1′-one-1′H-spiro[cyclobutan-1,4′-isoquinoline]-2′(3′H)-yl)ethyl)nicotinonitrile]
< 50 | < 20 | – | CCOc1cc([C@H](C)N2CC3(CC3)c3c(CN(C)C)cc(Cn4ccnc4NC)cc3C2=O)ncc1C#N [Compound 3]
50 to 200 | < 20 | – | CNc1nccn1Cc1cc(CN(C)C)c2c(c1)C(=O)N([C@@H](C)c1cc(OC)c(C#N)cn1)CC21CC1 [Compound 2]
50 to 200 | < 20 | – | CNc1nccn1Cc1cc(CN2CC(F)(F)C2)c2c(c1)C(=O)N([C@@H](C)c1cc(OC)c(C#N)cn1)CC21CC1 [Compound 61]
< 50 | < 20 | – | CCOc1cc(C(C)N2CC3(CC3(F)F)c3c(CN(C)C)cc(Cn4ccnc4NC)cc3C2=O)ncc1F (single isomer, unassigned) [Compound 88]
50 to 200 | < 20 | – | CCOc1cc([C@H](C)N2C[C@@]3(CC3(F)F)c3c(CN4CCN(C)CC4)cc(Cn4ccnc4NC)cc3C2=O)ncc1F (single isomer, unassigned) [Compound 92, 2′-(-1-(4-ethoxy-5-fluoropyridine-2-yl)ethyl)-2,2-difluoro-7′-((2-(methylamino)-1H-imidazol-1-yl)methyl)-5′-((4-methylpiperazin-1-yl)methyl)-2′,3′-dihydro-1′H-spiro[cyclopropan-1,4′-isoquinoline]-1′-one formate salt]
< 50 | < 20 | – | CCOc1cc([C@H](C)N2CC3(CC3)c3c(CN4CCN(C)CC4)cc(Cn4ccnc4NC)cc3C2=O)ncc1F [Compound 37]
50 to 200 | < 20 | – | CCOc1cc([C@H](C)N2CC3(CC3)c3c(CN4CCN(C5CC5)CC4)cc(Cn4ccnc4NC)cc3C2=O)ncc1F [Compound 64, (S)-5′-((4-cyclopropylpiperazin-1-yl)methyl)-2′-(1-(4-ethoxy-5-fluoropyridine-2-yl)ethyl)-7′-((2-(methylamino)-1H-imidazol-1-yl)methyl)-2′,3′-dihydro-1′H-spiro[cyclopropan-1,4′-isoquinoline]-1′-one]
– | < 20 | < 50 | CCOc1cc(C(C)N2CC3(CC3(F)F)c3c(CN(C)C)cc(Cn4ccnc4NC)cc3C2=O)ncc1F (single isomer, unassigned) [Compound 89]
50 to 200 | < 20 | – | CCOc1cc([C@H](C)N2CC3(CCC3)c3c(CN(C)C)cc(Cn4ccnc4NC)cc3C2=O)ncc1F [Compound 18, (S)-5′-((dimethylamino)methyl)-2′-(1-(4-ethoxy-5-fluoropyridine-2-yl)ethyl)-7′-((2-(methylamino)-1H-imidazol-1-yl)methyl)-2′,3′-dihydro-1′H-spiro[cyclobutan-1,4′-isoquinoline]-1′-one]
50 to 200 | < 20 | – | CCOc1cc([C@H](C)N2CC3(CC(F)(F)C3)c3c(CN(C)C)cc(Cn4ccnc4NC)cc3C2=O)ncc1F [Compound 98]
< 50 | < 20 | – | CCOc1cc([C@@H](C)N2C[C@@]3(CC3(F)F)c3c(CN4CCN(C)CC4)cc(Cn4ccnc4NC)cc3C2=O)ncc1F (stereo in doubt) [Compound 93, 2′-(-1-(4-ethoxy-5-fluoropyridine-2-yl)ethyl)-2,2-difluoro-7′-((2-(methylamino)-1H-imidazol-1-yl)methyl)-5′-((4-methylpiperazin-1-yl)methyl)-2′,3′-dihydro-1′H-spiro[cyclopropan-1,4′-isoquinoline]-1′-one formate salt]
< 50 | < 20 | – | CCOc1cc([C@@H](C)N2C[C@]3(CC3(F)F)c3c(CN(C)C)cc(Cn4ccnc4NC)cc3C2=O)ncc1F (stereo in doubt) [Compound 96, (S)-5′-((dimethylamino)methyl)-2′-((R)-1-(4-ethoxy-5-fluoropyridine-2-yl)ethyl)-2,2-difluoro-7′-((2-(methylamino)-1H imidazol-1-yl)methyl)-2′, 3′-dihydro-1′H-spiro[cyclopropan-1,4′-isoquinoline]-1′-one]
< 50 | < 20 | – | CNc1nccn1Cc1cc(CN(C)C)c2c(c1)C(=O)N([C@@H](C)c1cc(OC)c(F)cn1)CC21CC1 [Compound 5]
50 to 200 | < 20 | – | CCOc1cc([C@H](C)N2CC3(CC3)c3c(CN(CC)CC)cc(Cn4ccnc4NC)cc3C2=O)ncc1F [Compound 10, (S)-5′-(diethylamino)methyl)-2′-(1-(4-ethoxy-5-fluoropyridine-2-ylethyl)-7′-((2-(methylamino)-1H-imidazol-1-yl)methyl)-2′,3′-dihydro-1′H-spiro[cyclopropan-1,4′-isoquinoline]-1′-one]
< 50 | < 20 | – | [2H]C(C)(c1cc(OCC)c(C#N)cn1)N1CC2(CCC2)c2c(CN(C)C)cc(Cn3ccnc3NC)cc2C1=O (stereo not drawn) [Compound 101]
50 to 200 | 20 to 100 | – | CCOc1cc(C(C)N2CC3(CC3)c3c(CN(C)CC(F)(F)F)cc(Cn4ccnc4NC)cc3C2=O)ncc1F (stereo not drawn) [Compound 41, 2′-(1-(4-ethoxy-5-fluoropyridine-2-yl)ethyl)-5′-((methyl(2,2,2-trifluoroethyl)amino)methyl)-7′-((2-(methylamino)-1H-imidazol-1-yl)methyl)-2′,3′-dihydro-1′H-spiro[cyclopropan-1,4′-isoquinoline]-1′-one]
< 50 | < 20 | – | CCOc1cc([C@H](C)N2CC3(CC3)c3c(CN4C5CC4CN(C)C5)cc(Cn4ccnc4NC)cc3C2=O)ncc1F [Compound 70, 2′-((S)-1-(4-ethoxy-5-fluoropyridine-2-yl)ethyl)-5′-((3-methyl-3,6-diazadicyclo[3.1.1]heptan-6-yl)methyl)-7′-((2-(methylamino)-1H-imidazol-1-yl)methyl)-2′,3′-dihydro-1′H-spiro[cyclopropan-1,4′-isoquinoline]-1′-one]
< 50 | < 20 | – | CNc1nccn1Cc1cc(CN(C)C)c2c(c1)C(=O)N([C@@H](C)c1cnc(F)c(OC)c1)CC21CC1 [Compound 4]
< 50 | < 20 | – | CCOc1cc([C@H](C)N2CC3(CCC3)c3c(CN4CC[C@@H](O)C4)cc(Cn4ccnc4NC)cc3C2=O)ncc1F [Compound 84, 2′-((S)-1-(4-ethoxy-5-fluoropyridine-2-yl)ethyl)-5′-(((R)-3hydroxylpyrrolidin-1-yl)methyl)-7′-((2-(methylamino)-1H-imidazol-1-yl)methyl)-2′,3′-dihydro-1′H-spiro[cyclobutyl-1,4′-isoquinoline]-1′-one]
